From patent publication US4810630A, “Use of polyoxyethylene ethers to improve the performance of immunoassays employing peroxidase conjugates” (priority 1987, dated 1989)

Tested on: N. gonorrhea
Experiment: Microtiter plate enzyme immunoassay: optimization of coating antibody concentration with detergent in assay buffer
Set-up: species or system Neisseria gonorrhea
Method: Samples were treated 1.0N NaOH and neutralized with assay buffer as described in Example 1, above. For this assay, 0.100 mL aliquots of the treated, neutralized sample were transferred to the wells of a 96-well microtiter plate which had been previously incubated with an optimized concentration of anti-N. gonorrhea antibody diluted in phosphate buffered saline for 90-120 minutes, drained, then blocked with a solution containing 1.0% bovine serum albumin and 20% sucrose in phosphate buffered saline for 2 hours and dried in vacuo. The aliquots were permitted to incubate in the microtiter plate wells for 90 minutes at room temperature,then drained and washed with phosphate buffered saline containing 0.05% Tween® 20. Horseradish peroxidase conjugated anti-N. gonorrhea, 100 μL of an optimized concentration, was then added to each well and the plate again incubated for 1 hour at room temperature. The plate was then drained and washed as above. A 100 μL portion of the substrate/chromogen solution described in Example 1, above, was then added to each well and incubated for 10 minutes at room temperature. The absorbance of each well was then determined at 630 nm, and corrected for the absorbance at 490 nm.
Antibody specific for Neisseria gonorrhea was used to coat the wells of microtiter plates at varying concentrations in phosphate buffered saline, as described above. A comparison of the optimal antibody concentration in assays using Tween® 20 or Triton® X-100 was made by testing a single concentration of N. gonorrhea in wells previously coated, blocked, and dried as described above. The optimum concentration of antibody is identified as that which yields the maximum signal in the assay with a minimal background response. Table 4 lists the results of such experiments using Tween® 20 and Triton® X-100 as detergents in the assay buffer.

Substance | % Maximum Signal (coating antibody 0.20 μg/well) [%] | % Maximum Signal (coating antibody 0.30 μg/well) [%] | % Maximum Signal (coating antibody 0.35 μg/well) [%] | % Maximum Signal (coating antibody 0.40 μg/well) [%] | % Maximum Signal (coating antibody 0.45 μg/well) [%] | % Maximum Signal (coating antibody 0.5 μg/well) [%] | % Maximum Signal (coating antibody 0.60 μg/well) [%] | % Maximum Signal (coating antibody 0.05 μg/well) [%] | % Maximum Signal (coating antibody 0.1 μg/well) [%] | % Maximum Signal (coating antibody 0.8 μg/well) [%] | % Maximum Signal (coating antibody 1.0 μg/well) [%] | % Maximum Signal (coating antibody 1.5 μg/well) [%] | % Maximum Signal (coating antibody 2.0 μg/well) [%]
polyoxyethylene-octylphenoxy [Triton ® X-100] | 100 | 98 | 70 | 69 | 66 | 58 | 57 |  |  |  |  |  | 
polyoxyethylene-sorbitan monolaurate [Tween ® 20] |  |  |  |  |  | 100 |  | 16 | 35 | 98 | 90 | 77 | 66
